Experimental data as given in US12339274B2, “Blood coagulometer and method” (priority 2016, dated 2025).
Read-outs that look alike come from different tables or passages of the source.

System: human whole blood
Assay type: cell-based
Source text: One or more samples of human whole blood were collected by a licensed medical doctor from a healthy volunteer known to refrain from the taking of anticoagulant medications such as, for example, aspirin. Written informed consent of the donors was collected under an approved protocol from the Internal Review Board at the UT Health Science Center. Human whole blood was collected, by antecubital venipuncture, into vials 12 containing the anticoagulant sodium citrate (3.8%, applied at a 9:1 blood to citrate ratio).
Embodiments of the apparatus 10 of the present invention may also be used to characterize clot contraction. […] The test volume was 27 μL; however, to ensure filling of the test chamber and complete immersion within the blood sample 50 of the wetted portion 24/plate 15 of the probe 20 disposed within the vial 15, a volume of 250 μL of blood was injected into a vial 15 comprising glass. Data recording began once the wetted portion 24/plate 15 was lowered into position such that it was immersed within the blood sample 50 and was 1 mm away from the lower member 50, both of which comprised acrylic. Deflection of the wire portion 21 of the probe 20 typically began after 360 to 480 seconds, and data collection was concluded after 3,600 seconds (1 hour).

| SMILES | contraction force (increasing concentrations in human whole blood) | contraction force (1 mMol in human whole blood, FIG. 41) | contraction force (60 mMol in human whole blood, FIG. 41) |
| --- | --- | --- | --- |
| C=C1[C@@H](C)[C@H]2[C@H](Cc3ccccc3)NC(=O)[C@]23[C@H](OC(C)=O)/C=C/[C@@](C)(O)C(=O)[C@@H](C)C/C=C/[C@H]3[C@@H]1O [cytochalasin D] | dose-dependent decrease | – | – |
| c1nnn[nH]1 [tetrazole] | – | enhanced contraction force | reduced contraction force |
